Experimental findings from PubChem BioAssay (NCI) are described below.

Test systems include MDA-N; PC-3 prostate; T-47D breast; MCF7 breast; NCI/ADR-RES ovarian.
Assay in all cases: NCI-60 cell line screen, 48 h

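Tested at 5 concentrations; 48 h exposure; 96-well plates; endpoints linearly interpolated, else capped at highest concentration. The concentration for 50% growth inhibition is given as GI50. At the TGI there is no net growth.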

For the molecule `COc1ccc2c(c1)CC1N(C)CCC13CCCCC23` (stereo unspecified), the TGI in the test on MDA-N, in the test with PC-3 prostate, in the test on T-47D breast, in the test on MCF7 breast and with NCI/ADR-RES ovarian was over 100 µM in each case.

As for `C=C(C)[C@@H]1CC[C@]2(C(=O)N3CCN(C)CC3)CC[C@]3(C)[C@H](CC[C@@H]4[C@@]5(C)CC[C@H](O)C(C)(C)[C@@H]5CC[C@]43C)[C@@H]12`, the GI50 is 1.74 µM in the test on PC-3 prostate, 1.48 µM in the test with T-47D breast and 1.79 µM in the test with MCF7 breast. Further, the TGI was 3.48 µM with PC-3 prostate, 3.75 µM in the test with T-47D breast and 4.22 µM in the test on MCF7 breast.

In the case of `CCOC(=O)Nc1cc(-c2ccc(C)c(NS(C)(=O)=O)c2)nn2c(C)nnc12`, the GI50 was 1.36 µM with PC-3 prostate, 1.47 µM with T-47D breast, 0.395 µM with MCF7 breast and 6.26 µM in the test on NCI/ADR-RES ovarian. Besides, the TGI in the test on PC-3 prostate is over 100 µM; in the test on T-47D breast it was 17 µM; with MCF7 breast it was over 100 µM; in the test with NCI/ADR-RES ovarian, over 100 µM.

Turning to `C=C(C)C1CCC2(C(=O)O)CCC3(C)C(CCC4C5(C)CCC(O)C(C)(C)C5CCC43C)C12` (stereo unspecified), the TGI amounted to 54.9 µM in the test on MDA-N; 23.8 µM with PC-3 prostate; 35.5 µM in the test with T-47D breast; 47.7 µM with MCF7 breast; 31.5 µM in the test on NCI/ADR-RES ovarian.

For the molecule `COc1cc(OC)c(/C=C/C(=O)c2c(O)cc(OC)c(C3CCN(C)CC3)c2OC)c(OC)c1`, in the test with PC-3 prostate, the GI50 was 1.5 µM and the TGI was 2.86 µM. Also, in the test with T-47D breast, the GI50 is 1.76 µM and the TGI turned out to be 3.25 µM.

`CSc1nc(SC)c2c(C)cn(C3OC(C)C(O)C(O)C3O)c2n1` (stereo unspecified): the TGI is over 100 µM in the test with MDA-N; over 100 µM with PC-3 prostate; 84.7 µM with T-47D breast; over 100 µM in the test on MCF7 breast; over 100 µM in the test on NCI/ADR-RES ovarian.

Turning to `O=C(NCCCl)NCc1ccccc1`, the TGI with MDA-N, with PC-3 prostate, in the test on T-47D breast, in the test on MCF7 breast and in the test on NCI/ADR-RES ovarian was over 100 µM each time.

For `O=C(O)c1c[nH]c2c(ccc3[nH]cc(C(=O)O)c(=O)c32)c1=O`, the TGI in the test with MDA-N, with PC-3 prostate, with T-47D breast, in the test with MCF7 breast and in the test with NCI/ADR-RES ovarian was over 100 µM in each case.

Regarding `N/C(=N\C(N)=N\c1nc2ccccc2s1)c1ccnc(Br)c1`, the GI50 was 4.61 µM in the test with PC-3 prostate, 8.01 µM in the test on T-47D breast, 5.49 µM with MCF7 breast and 2.62 µM in the test with NCI/ADR-RES ovarian. Besides, the TGI is over 100 µM with PC-3 prostate, over 100 µM in the test on T-47D breast, over 100 µM in the test on MCF7 breast and 7.95 µM with NCI/ADR-RES ovarian.

In the case of `COc1cccc(/C=C2\CCc3ccccc3C2=O)c1`, the GI50 with PC-3 prostate was 16.3 µM; with T-47D breast, 13.6 µM; with MCF7 breast, 3.53 µM; with NCI/ADR-RES ovarian it was 10.1 µM. Besides, the TGI in the test with PC-3 prostate was determined as 65.1 µM; in the test with T-47D breast, 38.9 µM; in the test with MCF7 breast, 17.8 µM; in the test with NCI/ADR-RES ovarian, 48.8 µM.

For the molecule `NCCCCCCCCCn1c2c(c3ccccc3c1=O)C(=O)c1ccccc1-2`, the GI50 in the test with PC-3 prostate was 10.6 µM; with T-47D breast, 9.33 µM; in the test with MCF7 breast it was 9.62 µM; in the test on NCI/ADR-RES ovarian, 9.47 µM. The TGI with PC-3 prostate is 29.2 µM; in the test on T-47D breast, 22 µM; in the test on MCF7 breast, 26.1 µM; with NCI/ADR-RES ovarian it was 22.4 µM.

Take `Cn1c(=O)c(-c2c(Cl)cccc2Cl)cc2cnc(Nc3ccc(I)cc3)nc21`: the GI50 was under 0.012 µM with PC-3 prostate, 0.229 µM with T-47D breast and 0.212 µM with MCF7 breast. Further, the TGI with PC-3 prostate is over 100 µM; in the test on T-47D breast it was over 100 µM; in the test with MCF7 breast, over 100 µM; in the test with NCI/ADR-RES ovarian, 0.225 µM.

As to `O=C1c2ccccc2-c2ccccc2C1(Cl)Cl`, the GI50 in the test on PC-3 prostate is 1.08 µM; with T-47D breast, 1.6 µM; in the test with MCF7 breast it was 1.86 µM; in the test on NCI/ADR-RES ovarian it was 0.398 µM. Also, the TGI with PC-3 prostate was determined as 3.31 µM; with T-47D breast, 4.12 µM; with MCF7 breast it was 4.19 µM; in the test with NCI/ADR-RES ovarian, 1.85 µM.

Regarding `COc1cc2oc(-c3ccc(O)cc3)cc(=O)c2c(OC)c1O`, the TGI was over 100 µM in the test on MDA-N, 88.2 µM with T-47D breast, over 100 µM in the test with MCF7 breast and over 100 µM in the test with NCI/ADR-RES ovarian.

Take `Cc1cc2nc3c4cc([N+](=O)[O-])ccc4n(CCN(C)C)c3nc2cc1C`: the GI50 was 0.548 µM in the test on PC-3 prostate, 0.549 µM in the test on T-47D breast, 0.36 µM in the test with MCF7 breast and 0.382 µM with NCI/ADR-RES ovarian. Besides, the values for the TGI in the test on PC-3 prostate, in the test with T-47D breast and in the test with NCI/ADR-RES ovarian were 10.7 µM, over 42 µM and 4.6 µM, respectively.

Regarding `ClCc1ccc(-c2ccc(Cn3cnc4c(Cl)ncnc43)cc2)cc1`, the values for the GI50 in the test with PC-3 prostate, in the test with MCF7 breast and in the test with NCI/ADR-RES ovarian were 2.8 µM, 1.1 µM and 2.16 µM, respectively. Also, the TGI was determined as 9.92 µM in the test on PC-3 prostate, 12.4 µM in the test on MCF7 breast and 4.7 µM in the test on NCI/ADR-RES ovarian.

As to `O=[N+]([O-])c1cccc([I+]c2ccccc2)c1`, the GI50 in the test with PC-3 prostate was 7.78 µM; in the test with T-47D breast, 8.28 µM; in the test with MCF7 breast, 8.29 µM; with NCI/ADR-RES ovarian it was 47.9 µM. Also, the TGI in the test on PC-3 prostate is 26.1 µM; with T-47D breast it was 33.4 µM; with MCF7 breast, 41.5 µM; in the test with NCI/ADR-RES ovarian, over 100 µM.

Regarding `Cc1ccnc(NC(c2ccccc2)c2ccc3cccnc3c2O)c1` (stereo unspecified), the GI50 in the test with PC-3 prostate was 5.94 µM; in the test on T-47D breast, 4.22 µM; in the test with MCF7 breast it was 5.18 µM; in the test on NCI/ADR-RES ovarian, 2.47 µM. The TGI with PC-3 prostate was over 100 µM; in the test on T-47D breast, 35.1 µM; in the test with MCF7 breast, 30.4 µM; with NCI/ADR-RES ovarian, 14.9 µM.

For the molecule `Clc1ccc(Nc2ncnc3c2sc2ncccc23)c(Cl)c1`, the GI50 in the test on PC-3 prostate is 2.72 µM; in the test with MCF7 breast, under 0.01 µM; in the test on NCI/ADR-RES ovarian, 0.0139 µM. The TGI in the test on PC-3 prostate, in the test on MCF7 breast and in the test on NCI/ADR-RES ovarian was over 100 µM in each case.
